# Data from patent US4356167A, “Liposome drug delivery systems” (Sandoz, Inc., priority 1981, dated 1982).
# Values joined by “and” are separate entries in the source; they are usually repeats but may differ in a detail not shown here. Equal values may be shown once.
# Test system: blood glucose
# Assay: Blood glucose levels in mice after oral or i.m. dosing of insulin liposomes (Example 2)
# Format: in vivo
# Conditions: 10μ/kg
# Protocol: Insulin concentration of the liposomes was 11.69%. Suspensions of the liposome compositions A and B were given orally to mice at concentrations of A-50 U/0.1 ml/10 gms. of body weight; and B-25 U/0.1 ml/10 gms of body weight. A control group received 0.5% carboxymethyl cellulose concurrently.
# Composition A was diluted 1:10 for injection i.m. as a control.
# After two and four hours the animals were sacrificed by anesthetizing with 85 mg/kg of sodium hexobarbital i.p. and collecting blood via cardiac puncture. The collected blood was placed in an Auto Analyzer Cup containing 0.025 cc. of heparin 1000 units/ml. The blood samples were capped, shaken, and kept in an ice bucket. Glucose was determined by the Auto Analyzer potassium ferriccyanide method No. N-2b.
# Carboxymethyl cellulose given either by p.o. or i.m. route has the same effect on blood glucose. Therefore, the test materials whether given p.o. or i.m. can be related to the carboxymethyl cellulose control.
substance,measurement,setting,value
"Bovine Pancreatic Insulin: Bovine pancreatic insulin, Sigma Chemical","% Δ blood glucose 2 Hrs. Post (down arrow, decrease vs control)",2 hrs,82%
same,"Blood glucose levels 2 Hrs. Post, individual animals",2 hrs,14 MG/100 ml and 12 MG/100 ml and 16 MG/100 ml
same,"Blood glucose levels 2 Hrs. Post, mean",2 hrs,14.0 ± 8 MG/100 ml
same,"% Δ blood glucose 4 Hrs. Post (down arrow, decrease vs control)",4 hrs,75%
same,"Blood glucose levels 4 Hrs. Post, individual animals",4 hrs,37 MG/100 ml and 10 MG/100 ml and 27 MG/100 ml and 31 MG/100 ml
same,"Blood glucose levels 4 Hrs. Post, mean",4 hrs,26.3 MG/100 ml
